This is an account of results in PubChem BioAssay (NCI).

Among the test systems are MOLT-4 leukemia; A498 renal; MALME-3M melanoma; SK-MEL-28 melanoma; EKVX NSCLC; SK-OV-3 ovarian; CAKI-1 renal; MCF7 breast; MDA-MB-435; OVCAR-3 ovarian.
Holding throughout (assay): NCI tumour cell line growth inhibition, 48 h

Structures are written as SMILES.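 Five concentrations, 48 hours, 96-well plates. TGI is the concentration that stops growth completely.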

Take `C=CCOC(=O)N1c2ccc(O)cc2[C@@]23O[C@@]24[C@@H]1C#C/C=C\C#C[C@]3(O)C(OC)(OC)C[C@@H]4C`: the TGI with MOLT-4 leukemia was above 100 µM; in the test on A498 renal it was 67.6 µM; with MALME-3M melanoma it was 82 µM; with SK-MEL-28 melanoma, above 100 µM; with EKVX NSCLC it was above 100 µM; in the test with SK-OV-3 ovarian, above 100 µM. Also, the TGI in the test with CAKI-1 renal is above 100 µM; with MCF7 breast it was 98.2 µM; with MDA-MB-435 it was 53.7 µM.

Take `CCOC(=O)/C=C(\C(=O)OCC)n1cc(Cl)c(=O)n(CC(=O)OCC)c1=O`: the TGI with MOLT-4 leukemia came to 6.05 µM; with A498 renal it was 34.9 µM; in the test on MALME-3M melanoma, 3.85 µM; in the test with SK-MEL-28 melanoma it was 36.5 µM; in the test on EKVX NSCLC, 30.9 µM; with SK-OV-3 ovarian, 33.9 µM. Also, the TGI in the test on CAKI-1 renal amounted to 5.27 µM; in the test with MCF7 breast, 8.07 µM; in the test on MDA-MB-435, 35.5 µM; in the test on OVCAR-3 ovarian, 8.69 µM.

Turning to `CCC(CC)(CO)CNc1cc(Cl)nc(N)n1`, the TGI in the test on MOLT-4 leukemia, with A498 renal, with MALME-3M melanoma, in the test with SK-MEL-28 melanoma, in the test with EKVX NSCLC and in the test with SK-OV-3 ovarian was above 100 µM throughout. Further, the TGI in the test on CAKI-1 renal, with MCF7 breast, in the test with MDA-MB-435 and in the test with OVCAR-3 ovarian was above 100 µM each time.

In the case of `O=c1[nH]nc(Cc2ccccc2)n1/N=C/c1cccnc1`, the TGI with MOLT-4 leukemia, in the test with A498 renal, in the test on MALME-3M melanoma, in the test with SK-MEL-28 melanoma, in the test with EKVX NSCLC and with CAKI-1 renal was above 100 µM in each case. The TGI with MCF7 breast, in the test on MDA-MB-435 and in the test with OVCAR-3 ovarian was above 100 µM throughout.

For the compound `O=C(N/N=C\c1cccc2ccccc12)Nc1cccc2ccccc12`, the TGI is 51.3 µM in the test with A498 renal; above 100 µM with MALME-3M melanoma; above 100 µM in the test with SK-MEL-28 melanoma; above 100 µM in the test with EKVX NSCLC; 83.4 µM in the test on CAKI-1 renal; above 100 µM with MCF7 breast. The compound further displayed a TGI with MDA-MB-435 of 24.3 µM.

With `Cc1nc2c(cc1OCc1ccccc1)C(=O)C1=C(C2=O)C2OC(=O)CC2OC1(C)C` (stereo not drawn), the TGI turned out to be 87.9 µM with MOLT-4 leukemia; 3.02 µM in the test on A498 renal; 2.25 µM with MALME-3M melanoma; 1.14 µM with SK-MEL-28 melanoma; 3.63 µM with EKVX NSCLC; 1.67 µM in the test with CAKI-1 renal. For the same compound, the TGI in the test on MCF7 breast is 0.339 µM; in the test with MDA-MB-435, 1.8 µM.

Take `O=C1CC(=O)NC(=NN2C(=O)CSC2C(=O)c2ccco2)N1` (stereo not drawn): the TGI with MOLT-4 leukemia, in the test with A498 renal, in the test on MALME-3M melanoma, with SK-MEL-28 melanoma, in the test with SK-OV-3 ovarian and in the test on CAKI-1 renal was above 100 µM in each case. In addition, the TGI with MCF7 breast, in the test with MDA-MB-435 and in the test on OVCAR-3 ovarian was above 100 µM throughout.

`NCCCNOCCCN`: the TGI with MOLT-4 leukemia, in the test on A498 renal, with MALME-3M melanoma, with SK-MEL-28 melanoma, with SK-OV-3 ovarian and in the test on CAKI-1 renal was above 100 µM throughout. The TGI in the test on MCF7 breast, in the test on MDA-MB-435 and in the test on OVCAR-3 ovarian was above 100 µM each time.

Take `C=C(C)[C@H]1C2=CC(C)=C(O2)[C@@H](O)[C@H](C(=C)C)CCC2=C[C@H]1OC2=O`: the TGI with MOLT-4 leukemia, in the test on A498 renal, with MALME-3M melanoma, with SK-MEL-28 melanoma, in the test on EKVX NSCLC and in the test with CAKI-1 renal was above 100 µM throughout. In addition, the TGI with MCF7 breast, in the test on MDA-MB-435 and in the test with OVCAR-3 ovarian was above 100 µM each time.

For the compound `C=CC(=O)N1C/C(=C\c2ccc([N+](=O)[O-])cc2)C(=O)/C(=C/c2ccc([N+](=O)[O-])cc2)C1`, the TGI was determined as 0.807 µM with A498 renal; 0.643 µM in the test on MALME-3M melanoma; 1.74 µM in the test with SK-MEL-28 melanoma; 0.829 µM with EKVX NSCLC; 2.85 µM in the test on SK-OV-3 ovarian; 0.801 µM in the test with CAKI-1 renal. Further, the values for the TGI with MCF7 breast, in the test with MDA-MB-435 and with OVCAR-3 ovarian were 1.21 µM, 1.36 µM and 1.08 µM, respectively.

As to `CC(=O)O[C@H]1C(=O)[C@@]2(C)[C@H]([C@H](OC(=O)c3ccccc3)[C@]3(O)C[C@H](OC(=O)[C@H](O)[C@@H](NC(=O)c4ccccc4)c4cccc(N(C)C)c4)C(C)=C1C3(C)C)[C@]1(OC(C)=O)CO[C@@H]1C[C@@H]2O`, the TGI in the test with A498 renal is 9.02 µM; in the test with MALME-3M melanoma, above 67.1 µM; with SK-MEL-28 melanoma, above 75 µM; in the test with EKVX NSCLC, above 75 µM; in the test on SK-OV-3 ovarian, above 28.6 µM; in the test with CAKI-1 renal, above 75 µM. Moreover, the TGI in the test on MCF7 breast was above 55.2 µM; with MDA-MB-435 it was 0.0388 µM; in the test on OVCAR-3 ovarian it was 0.586 µM.

On to `COC1=C(C)C(=O)C2=C(C1=O)C1C3CC4=C(C(=O)C(OC)=C(C)C4=O)C(CNC(=O)C(C)O)N3C(C#N)C(C2)N1C` (stereo not drawn), for which the TGI in the test on MOLT-4 leukemia was below 0.215 µM; in the test on MALME-3M melanoma it was below 0.0139 µM; in the test with SK-MEL-28 melanoma, below 0.0217 µM; with EKVX NSCLC it was 0.108 µM; in the test with SK-OV-3 ovarian, 1.2 µM; with CAKI-1 renal it was 2 µM. Besides, the TGI is 2.25 µM in the test with MCF7 breast, below 0.01 µM in the test on MDA-MB-435 and below 0.01 µM in the test with OVCAR-3 ovarian.

With `CN(C)CCOc1ccc(-c2c(Oc3ccccc3)c(=O)oc3ccccc23)cc1`, the TGI worked out at 20.5 µM with MOLT-4 leukemia; 27 µM with A498 renal; 25.8 µM in the test on MALME-3M melanoma; 25.5 µM in the test with SK-MEL-28 melanoma; 27.5 µM in the test on EKVX NSCLC; 48.7 µM with CAKI-1 renal. The values for the TGI in the test on MCF7 breast, in the test on MDA-MB-435 and in the test on OVCAR-3 ovarian were 17.5 µM, 21.2 µM and 26 µM, respectively.

For `O=c1[nH]c2nccn2c2c1SCCN2`, the TGI in the test with MOLT-4 leukemia, in the test with A498 renal, with MALME-3M melanoma, in the test with SK-MEL-28 melanoma, with EKVX NSCLC and in the test on CAKI-1 renal was above 100 µM in each case. Moreover, the TGI in the test with MCF7 breast, in the test with MDA-MB-435 and in the test with OVCAR-3 ovarian was above 100 µM each time.

For `Nc1ccc2ccc(N3CCNCC3)nc2n1`, the TGI in the test with MOLT-4 leukemia, in the test with MALME-3M melanoma, in the test on SK-MEL-28 melanoma, in the test with EKVX NSCLC, in the test with SK-OV-3 ovarian and with CAKI-1 renal was above 100 µM throughout. Also, the TGI in the test on MCF7 breast, in the test on MDA-MB-435 and in the test with OVCAR-3 ovarian was above 100 µM in each case.

Take `Cc1cc(Nc2ccc(NS(C)(=O)=O)cc2)c2c(ccc3nccc32)[nH]1`: the TGI with MOLT-4 leukemia was 11.8 µM; with A498 renal it was 43 µM; in the test on MALME-3M melanoma, 27.8 µM; with SK-MEL-28 melanoma it was 33.4 µM; in the test with EKVX NSCLC, above 100 µM; in the test on CAKI-1 renal, 96.6 µM. Also, the TGI stood at 36.2 µM with MCF7 breast, 30.5 µM in the test with MDA-MB-435 and 29.1 µM with OVCAR-3 ovarian.

Regarding `COC(=O)c1cn(CC(O)CCl)nn1` (stereo not drawn), the TGI in the test with MOLT-4 leukemia, in the test with A498 renal, in the test on MALME-3M melanoma, in the test on SK-MEL-28 melanoma, with EKVX NSCLC and in the test on CAKI-1 renal was above 100 µM throughout. The TGI with MCF7 breast, in the test with MDA-MB-435 and with OVCAR-3 ovarian was above 100 µM throughout.

`CN1Cc2cc(O)c(O)cc2C(O)C1` (stereo not drawn): the TGI with MOLT-4 leukemia, in the test on MALME-3M melanoma, with SK-MEL-28 melanoma, in the test with EKVX NSCLC, in the test on SK-OV-3 ovarian and in the test with CAKI-1 renal was above 100 µM in each case. Besides, the TGI in the test on MCF7 breast, in the test with MDA-MB-435 and in the test on OVCAR-3 ovarian was above 100 µM each time.

As to `CCCCc1ccc(Nc2nc(Cl)c3c(ncn3C3CC(Oc4ccc(C)cc4)C(COc4ccc(C)cc4)O3)n2)cc1` (stereo not drawn), the TGI in the test on MOLT-4 leukemia, in the test on A498 renal, in the test with MALME-3M melanoma, in the test with EKVX NSCLC, with SK-OV-3 ovarian and with CAKI-1 renal was above 100 µM each time. The TGI with MCF7 breast, with MDA-MB-435 and in the test on OVCAR-3 ovarian was above 100 µM each time.

For `COC(=O)CNC(=O)CCC(C)[C@H]1CCC2C3C(C[C@H](OC(C)=O)[C@@]21C)[C@@]1(C)CCC2(C[C@H]1C[C@H]3OC(C)=O)OOC1(CC[C@]3(C)C4C[C@H](OC(C)=O)[C@@]5(C)C(CC[C@@H]5C(C)CCC(=O)NCC(=O)OC)C4[C@H](OC(C)=O)C[C@@H]3C1)OO2` (stereo partly drawn), the TGI with A498 renal is 39.8 µM; with MALME-3M melanoma it was 1.93 µM; in the test with SK-MEL-28 melanoma, 9.52 µM; in the test with EKVX NSCLC it was 1.78 µM; in the test on SK-OV-3 ovarian, 13.9 µM; with CAKI-1 renal it was 6.96 µM. The TGI is above 50 µM in the test with MCF7 breast, above 50 µM with MDA-MB-435 and 15.9 µM in the test with OVCAR-3 ovarian.

`O=C(CN1CCCCC1)Nc1ccc2c(c1)C1Oc3ccccc3CC1CO2` (stereo not drawn): the TGI in the test on MOLT-4 leukemia was above 100 µM; with A498 renal it was 62.8 µM; with MALME-3M melanoma, 32.2 µM; in the test with EKVX NSCLC it was 53.9 µM; in the test on SK-OV-3 ovarian it was 81.9 µM; in the test with CAKI-1 renal, above 100 µM. The TGI with MCF7 breast was found to be 44.1 µM; in the test on MDA-MB-435, 38.4 µM; in the test on OVCAR-3 ovarian, 64.9 µM.
